From patent US8916565B2, “Pyrrolopyrazine-spirocyclic piperidine amides as modulators of ion channels” (priority 2011, dated 2014) come the findings set out here.

A word on the pIC50: it is −log10 of the IC50, conventionally taken in molar units.

pIC50: −log10 of the molar value.

This assay addresses human NaV subtype, like NaV 1.7 (Homo sapiens, UniProt Q15858). The assay is described as follows: E-VIPR optical membrane potential assay with electrical stimulation. In kind it is cell-based. To be noted: active against one or more sodium channels; Table 3 does not name the assay or NaV subtype; read-out: Binned Activity Data (IC50).

Chain of human NaV subtype, like NaV 1.7 (Q15858 whole entry): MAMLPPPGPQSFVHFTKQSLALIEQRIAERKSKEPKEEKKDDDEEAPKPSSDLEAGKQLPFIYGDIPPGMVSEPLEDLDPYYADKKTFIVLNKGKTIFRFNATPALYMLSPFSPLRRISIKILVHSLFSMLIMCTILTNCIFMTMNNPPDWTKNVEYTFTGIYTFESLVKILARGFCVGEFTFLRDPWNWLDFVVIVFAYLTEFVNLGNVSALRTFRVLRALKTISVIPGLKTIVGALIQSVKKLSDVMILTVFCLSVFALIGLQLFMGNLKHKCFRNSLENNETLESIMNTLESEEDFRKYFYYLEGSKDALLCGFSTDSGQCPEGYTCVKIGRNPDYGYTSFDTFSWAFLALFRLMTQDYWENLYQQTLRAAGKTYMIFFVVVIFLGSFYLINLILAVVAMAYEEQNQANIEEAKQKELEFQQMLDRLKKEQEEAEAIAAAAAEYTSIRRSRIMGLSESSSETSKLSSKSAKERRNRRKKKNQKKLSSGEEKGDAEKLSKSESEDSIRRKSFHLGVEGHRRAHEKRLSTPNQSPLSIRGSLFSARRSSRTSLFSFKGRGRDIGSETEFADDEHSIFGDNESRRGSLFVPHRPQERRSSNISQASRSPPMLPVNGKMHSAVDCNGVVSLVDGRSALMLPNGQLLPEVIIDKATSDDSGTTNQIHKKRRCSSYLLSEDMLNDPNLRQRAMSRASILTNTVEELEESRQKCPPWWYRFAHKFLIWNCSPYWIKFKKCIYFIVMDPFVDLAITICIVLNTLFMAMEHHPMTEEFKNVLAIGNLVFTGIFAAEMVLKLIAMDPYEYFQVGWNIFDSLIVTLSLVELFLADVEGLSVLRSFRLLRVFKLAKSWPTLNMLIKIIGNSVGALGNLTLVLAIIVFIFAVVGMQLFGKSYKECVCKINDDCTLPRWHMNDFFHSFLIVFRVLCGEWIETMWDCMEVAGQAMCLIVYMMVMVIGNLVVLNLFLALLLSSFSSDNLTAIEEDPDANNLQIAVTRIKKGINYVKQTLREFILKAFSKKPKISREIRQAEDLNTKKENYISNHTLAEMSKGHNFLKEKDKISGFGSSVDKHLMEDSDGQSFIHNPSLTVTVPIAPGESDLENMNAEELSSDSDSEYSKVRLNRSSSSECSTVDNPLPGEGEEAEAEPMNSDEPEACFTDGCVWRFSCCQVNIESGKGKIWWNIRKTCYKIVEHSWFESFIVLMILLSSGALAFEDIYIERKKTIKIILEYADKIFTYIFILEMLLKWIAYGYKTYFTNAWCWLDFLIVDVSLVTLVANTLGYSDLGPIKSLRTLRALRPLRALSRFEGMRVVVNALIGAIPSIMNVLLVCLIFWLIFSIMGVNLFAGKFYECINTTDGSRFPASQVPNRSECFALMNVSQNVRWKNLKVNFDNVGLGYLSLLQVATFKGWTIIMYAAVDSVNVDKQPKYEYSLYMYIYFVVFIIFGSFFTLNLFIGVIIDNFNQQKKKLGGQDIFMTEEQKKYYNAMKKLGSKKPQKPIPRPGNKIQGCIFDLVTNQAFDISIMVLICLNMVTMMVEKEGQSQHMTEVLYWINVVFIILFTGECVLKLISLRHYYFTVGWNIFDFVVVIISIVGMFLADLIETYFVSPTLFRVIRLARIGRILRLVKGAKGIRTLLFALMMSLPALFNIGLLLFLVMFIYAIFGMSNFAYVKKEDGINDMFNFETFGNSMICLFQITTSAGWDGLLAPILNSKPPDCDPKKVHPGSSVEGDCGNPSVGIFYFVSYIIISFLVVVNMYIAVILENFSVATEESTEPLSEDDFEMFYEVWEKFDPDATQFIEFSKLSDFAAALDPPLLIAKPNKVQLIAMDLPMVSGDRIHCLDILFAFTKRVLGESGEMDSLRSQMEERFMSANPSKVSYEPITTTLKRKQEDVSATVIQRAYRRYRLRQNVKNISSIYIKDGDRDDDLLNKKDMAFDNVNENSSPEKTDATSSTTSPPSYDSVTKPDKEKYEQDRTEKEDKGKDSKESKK

For the molecule `C[C@H]1Cn2c(C(=O)C(F)(F)F)ccc2C2(CCN(C(=O)c3ccc(S(=O)(=O)C(C)(C)C)cc3)CC2)N1C` [Compound 300], the pIC50 is at least 5.70.

With `CN1CCn2c(Cl)ccc2C12CCN(C(=O)c1ccc(C3(O)CCCC3)cc1)CC2` [Compound 301], the pIC50 is below 5.30.

Regarding `CN1CCn2c(ccc2S(C)(=O)=O)C12CCN(C(=O)c1ccc(C3CCCCC3)cc1)CC2` [Compound 302], the pIC50 is 5.30 to 5.70.

For `Cc1cc(C(=O)N2CCC3(CC2)c2ccc(C(=O)C(F)(F)F)n2CCN3C)ccc1-c1c[nH]nc1C(F)(F)F` [Compound 303], the pIC50 was below 5.30.

On to `CC(=O)c1ccc2n1CCN(C)C21CCN(C(=O)c2ccc(-c3ccccc3)c(C)c2)CC1` [Compound 304], for which the pIC50 was at least 5.70.

Turning to `CN1CCn2c(C(F)(F)F)ccc2C12CCN(C(=O)c1cccnc1N1CCCC1)CC2` [Compound 305], the negative logarithm of the IC50 (pIC50) is at least 5.70.

Regarding `COc1cc(C(=O)N2CCC3(CC2)N[C@@H](C)Cn2c(C(F)(F)F)ccc23)ccc1OC(C)C` [Compound 306], the pIC50 is 5.30 to 5.70.

Take `Cc1cc(C(=O)N2CCC3(CC2)c2ccc(C(F)(F)F)n2CCN3C2CC2)ccc1C(C)(C)O` [Compound 307]: the pIC50 is at least 5.70.

For `Cc1cc(C(=O)N2CCC3(CC2)N[C@H](C)Cn2c(C(F)(F)F)ccc23)ccc1OC(C)C` [Compound 308], the pIC50 was at least 5.70.

For the molecule `CC(=O)c1ccc2n1CCN(C)C21CCN(C(=O)c2ccc(C3(O)CCCC3)cc2)CC1` [Compound 309], the pIC50 was below 5.30.

On to `CC1CCN(S(=O)(=O)c2ccc(C(=O)N3CCC4(CC3)c3ccc(Cl)n3CCN4C)cc2)CC1` [Compound 310], for which the pIC50 is below 5.30.

For the molecule `Cc1cc(C(=O)N2CCC3(CC2)c2ccc(C(=O)C(F)(F)F)n2C(C)CN3C)ccc1C(C)(C)O` (stereo not shown) [Compound 311], the pIC50 is at least 5.70.

As to `COc1ccc(C(=O)N2CCC3(CC2)NC(C)(C)Cn2c(C(=O)C(F)(F)F)ccc23)c(F)c1` [Compound 312], the pIC50 is at least 5.70.

For `CN1CCn2c(C(F)(F)F)cc(F)c2C12CCN(C(=O)c1ccc(CC(C)(C)O)cc1)CC2` [Compound 313], the negative-log IC50 (pIC50) was at least 5.70.

On to `COc1ccc(C(=O)N2CCC3(CC2)c2ccc(C(=O)C(C)(C)C)n2CCN3C)cc1C` [Compound 314], for which the pIC50 is at least 5.70.

With `COc1cc(C(=O)N2CCC3(CC2)c2ccc(C(=O)C(F)(F)F)n2CCN3C)ccc1OC(C)C` [Compound 315], the pIC50 is at least 5.70.

`C=C(C)c1ccc(C(=O)N2CCC3(CC2)c2ccc(C(F)(F)F)n2CCN3C)cc1C` [Compound 316]: the pIC50 is at least 5.70.

`COc1cc(C(=O)N2CCC3(CC2)c2ccc(C(F)(F)F)n2CCN3C2CCC2)ccc1OC(C)C` [Compound 317]: the pIC50 is 5.30 to 5.70.

Consider `Cc1cc(C(=O)N2CCC3(CC2)NC(C)(C)Cn2c(C(=O)C(F)(F)F)ccc23)ccc1O` [Compound 318], for which the pIC50 is at least 5.70.

Take `Cc1ccc(C(=O)N2CCC3(CC2)c2ccc(C(F)(F)F)n2CCN3C)cc1` [Compound 319]: the pIC50 was below 5.30.

Consider `COc1cc(C(=O)N2CCC3(CC2)NC(C)Cn2c(C(F)(F)F)ccc23)ccc1OC(C)C` (stereo not shown) [Compound 320], for which the pIC50 is at least 5.70.

As to `COc1ccc(C(=O)N2CCC3(CC2)c2ccc(C(F)(F)F)n2CCN3C)cc1OC` [Compound 321], the pIC50 is below 5.30.

For `Cc1nc(C(=O)N2CCC3(CC2)c2ccc(C(=O)C(F)(F)F)n2CCN3C)ccc1O` [Compound 322], the pIC50 was at least 5.70.

For the molecule `CN1CCn2c(Cl)ccc2C12CCN(C(=O)c1ccc(OC(F)(F)F)cc1)CC2` [Compound 323], the pIC50 was below 5.30.

In the case of `CC(C)Oc1ccc(C(=O)N2CCC3(CC2)NCC(C)n2c(C(=O)C(F)(F)F)ccc23)cc1Cl` (stereo not shown) [Compound 324], the pIC50 was at least 5.70.

Consider `CC(C)Oc1ccc(C(=O)N2CCC3(CC2)c2ccc(C(=O)C(F)(F)F)n2C(C)CN3C)cc1Cl` (stereo not shown) [Compound 325], for which the pIC50 is at least 5.70.

For `Cc1cc(C(=O)N2CCC3(CC2)c2ccc(C(F)(F)C(F)(F)F)n2CCN3C)ccc1S(=O)(=O)C(C)C` [Compound 326], the pIC50 was at least 5.70.

In the case of `COc1cc(C(=O)N2CC[C@@]3(c4ccc(C(F)(F)F)n4CCN3C)[C@H](F)C2)ccc1OC(C)C` [Compound 327], the pIC50 was at least 5.70.

On to `COc1cc(C(=O)N2CC[C@]3(C[C@H]2C)c2ccc(C(F)(F)F)n2CCN3C)ccc1OC(C)C` [Compound 328], for which the pIC50 was below 5.30.

Take `CC(=O)c1ccc2n1CCN(C)C21CCN(C(=O)c2ccc(OCC3CC3)c(F)c2)CC1` [Compound 329]: the pIC50 was 5.30 to 5.70.

As for `CN1CCn2c(Cl)ccc2C12CCN(C(=O)c1ccc(OCC(F)(F)F)cc1)CC2` [Compound 330], the pIC50 was 5.30 to 5.70.

As for `CCc1ccc(C(=O)N2CCC3(CC2)c2ccc(C(=O)C(F)(F)F)n2CCN3C)nc1` [Compound 331], the pIC50 was below 5.30.

For `Cc1cc(C(=O)N2CCC3(CC2)c2ccc(C(F)(F)F)n2CCN3C2CC2)ccc1OCC(C)(C)O` [Compound 332], the negative-log IC50 (pIC50) was at least 5.70.

On to `Cc1cc(C(=O)N2CCC3(CC2)c2ccc(C(F)(F)F)n2CCN3C2CC2)ccc1OC(C)C` [Compound 333], for which the negative-log IC50 (pIC50) is at least 5.70.

`CN1CCn2c(Cl)ccc2C12CCN(C(=O)c1ccc(Cc3ccccc3)cc1)CC2` [Compound 334]: the pIC50 is below 5.30.

Consider `Cc1cc(C(=O)N2CCC3(CC2)c2ccc(C(F)(F)F)n2CCN3C)ccc1OCCO` [Compound 335], for which the pIC50 is at least 5.70.

With `COCCN1CCn2c(C(F)(F)F)ccc2C12CCN(C(=O)c1ccc(OC(C)C)c(CO)c1)CC2` [Compound 336], the pIC50 is at least 5.70.

Consider `CC(C)Oc1ccc(C(=O)N2CCC3(CC2)NCC(C)(C)n2c(C(F)(F)F)ccc23)cc1F` [Compound 337], for which the pIC50 is at least 5.70.

As for `COc1ccc(C(=O)N2CCC3(CC2)c2ccc(C(=O)C(C)C)n2CCN3C)cc1C` [Compound 338], the pIC50 is at least 5.70.

On to `CC(C)Cc1ccc(C(=O)N2CCC3(CC2)c2ccc(C(=O)C(F)(F)F)n2CCN3C)cc1` [Compound 339], for which the pIC50 is at least 5.70.

As to `Cc1cc(C(=O)N2CCC3(CC2)c2c(Br)cc(C(F)(F)F)n2CCN3C)ccc1OC(C)C` [Compound 340], the pIC50 is at least 5.70.

Regarding `COc1ccc(C(=O)N2CCC3(CC2)NCC(C)n2c(C(=O)C(F)(F)F)ccc23)cc1Cl` (stereo not shown) [Compound 341], the negative logarithm of the IC50 (pIC50) is at least 5.70.

Consider `CC(=O)c1ccc2n1CCN(C)C21CCN(C(=O)c2ccc(OC(C)C)cc2)CC1` [Compound 342], for which the pIC50 is below 5.30.

As to `CCNS(=O)(=O)c1ccc(C(=O)N2CCC3(CC2)c2ccc(C(F)(F)F)n2CCN3C)cc1C` [Compound 343], the pIC50 is at least 5.70.

As for `CC(=O)c1cc2n(c1)CC(C)(C)NC21CCN(C(=O)c2ccc(C3CCCCC3)cc2)CC1` [Compound 344], the pIC50 is 5.30 to 5.70.

For the molecule `CCc1ccc(C(=O)N2CCC3(CC2)c2ccc(C(F)(F)F)n2CCN3C)nc1` [Compound 345], the pIC50 is below 5.30.

For the molecule `CN1CCn2c(C(F)(F)F)ccc2C12CCN(C(=O)c1cccnc1N1CCCCC1)CC2` [Compound 346], the pIC50 is at least 5.70.

Turning to `Cc1cc(C(=O)N2CCC3(CC2)c2ccc(C(F)(F)F)n2CCN3C)ccc1S(=O)(=O)N(C)C` [Compound 347], the pIC50 is at least 5.70.

For `COc1cc(C(=O)N2CCC3(CC2)c2c(Br)cc(C(F)(F)F)n2CCN3C)ccc1OC(C)C` [Compound 348], the pIC50 is at least 5.70.
